Results published in publication PMC11396839, “Structure-Aided Computational Design of Triazole-Based Targeted Covalent Inhibitors of Cruzipain” (Molecules, 2024).
Values joined by “and” are separate entries in the source; they are usually repeats but may differ in a detail not shown here. Identical values can stand only once. Like-named read-outs stand apart in the source and are kept apart here.

Key:
T. cruzi = tested on: T. cruzi; design: method as in PMID 18435536, PMID 9705954, PMID 20088534; conditions: cited from earlier work
Vero cells = assay: Cytotoxicity assay, Alamar blue; format: cell-based; conditions: 50 μM, 96 h incubation
Procedure: To evaluate the viability of Vero cells, the Alamar blue method was followed. First, 10^4 Vero cells/well in 100 μ L MEM-10% FBS were seeded in 96-well culture plates. After 24 h, 50 μ M inhibitor solution was added to cell monolayers and incubated for 96 h. After incubation, resazurin solution (final concentration 10 μ g·mL^−1) was added to each well, and fluorescence was measured after 2 h in a Synergy HTX multi-mode microplate reader (Biotek Instruments, Winooski, VT, USA) using the […] filters. Each condition was tested in triplicate and in at least three independent experiments.

[1] = tested on: T. cruzi (Tulahuen trypomastigotes overexpressing β-galactosidase) in Vero cells; assay: T. cruzi inhibition assay, infection model in Vero cells, β-galactosidase activity; format: cell-based, Trypanosoma cruzi; conditions: for anti-T. cruzi/cytotoxicity balance in words: 50 μM (Ald-4 20 μM)
Procedure: To perform the assay, the drug screening method reported by Buckner et al. was adapted. Vero cells were seeded at 1 × 10^4 per well on 96-well culture plates in 100 μ L MEM-5% FBS. Tulahuen trypomastigotes overexpressing the E. coli β -galactosidase protein were distributed in triplicates on the plate. After a 2 h incubation at 37 °C, the culture media were extracted and replaced with fresh MEM-5% FBS with 1 μ M, 10 μ M or 50 μ M solutions of the triazole-based inhibitors, and the plate was incubated another 72 h at 37 °C. Ninety-six hours post infection, the cell culture media were removed and cells and intracellular amastigotes were lysed in 100 μ L lysis buffer (25 mM Tris pH 8, 2 mM EDTA, 2 mM DTT, 1% Triton X-100, 10% glycerol in ultrapure MQ water) for 10 min at 37 °C. Then, 100 μ L 2× reaction buffer (200 mM sodium phosphate pH 8, 2 mM MgCl2, 100 mM 2-mercaptoethanol and 1.33 mg.mL^−1 o-nitrophenyl- β -galactoside (ONPG)) was added and the reaction was allowed to proceed until a yellow color developed (1–2 h at 37 °C). The absorbance at 420 nm was measured in a Synergy HTX multi-mode microplate reader (Biotek Instruments, Winooski, VT, USA) and normalized to the value obtained for the infection in the absence of inhibitors. To determine its IC50, Ald-6 was evaluated at nine different concentrations (0.098, 0.195, 0.39, 0.78, 1.56 3.13 6.25, 12.5 and 50.0 μ M), following the same protocol. Each infection condition and inhibitor were tested in triplicates in four independent experiments.

CZP [2] = target: T1, CZP (Trypanosoma cruzi, UniProt P25779); assay: Jump dilution assay on CZP; format: biochemical, T. cruzi; conditions: for slope of progress curve relative to control (DMSO): 10 × IC50 with 100 × [CZP] 30 min, 100× dilution, 2 h monitoring; for mode of CZP inhibition from jump dilution: in words
T1 construct: gift of Allison Doak and Prof; Brian Shoichet (University of California San Francisco)
Procedure: Jump dilution assay. […] Fluorescence intensities were monitored continuously for 2 h.

[3] = target: T2, recombinant human cathepsin L (hCatL) (Homo sapiens, UniProt P07711); assay: hCatL screening, cleavage of Z-FR-AMC; format: biochemical; conditions: for selectivity for CZP over hCatL in words: 100 μM; for inhibition at 100 µM: 10 min incubation, read-out: % hCatL inhib.
T2 construct: purchased Sigma-Aldrich
Procedure: The recombinant human cathepsin L (hCatL) (Sigma-Aldrich) was activated prior to the assays. First, 10 ng/ μ L of the enzyme was incubated in the activation buffer (50 mM MES, pH 6, 1 mM EDTA, 5mM DTT) for 30 min at 37 °C. hCatL activity was measured based on the cleavage of the fluorescent substrate Z-FR-AMC in a Biotec 87 Synergy 2 fluorimeter at the Multiuser Laboratory of the Biochemistry and Immunology Department (UFMG, Brazil). The assays were executed in 96-well round bottom black plates in 50 mM MES buffer, pH 6, containing 1 mM EDTA, 5 mM DTT, 0.001% Triton-X100, 5 pg/ μ L enzyme and 25 μ M Z-FR-AMC at 37 °C. The triazole-based derivatives were tested against hCatL, at 100 μ M, with a 10 min pre-incubation with the enzyme. The initial velocities of the DMSO control were compared to those in the presence of the compounds. Assays were executed in triplicate in two independent experiments, and enzyme activity was measured for 20 min.

CZP [4] = target: T1, CZP; assay: Aggregation assays (Triton X-100 sensitivity, BSA preincubation) on CZP; format: biochemical, T. cruzi; conditions: for CZP activity inhibition percentage, Triton 0% + BSA: compound at its IC50, 10-min preincubation with 4 mg/mL BSA; for CZP activity inhibition percentage, Triton 0% / CZP activity inhibition percentage, Triton 0.01% / CZP activity inhibition percentage, Triton 0.1%: compound at its IC50, 10 min preincubation
Procedure: Aggregation Assays. To evaluate detergent sensitivity, CZP was pre-incubated with compounds at their IC50 for 10 min at room temperature in varying concentrations of Triton X-100 (0%, 0.1% and 0.01%). […] For comparison, the four conditions were assayed in parallel. Aggregation was excluded when the difference in inhibition percentages between the different conditions was less than 20%.

[5] = tested on: T. cruzi (Tulahuen trypomastigotes overexpressing β-galactosidase) in Vero cells; assay: T. cruzi inhibition assay, infection model in Vero cells, β-galactosidase activity; format: cell-based, Trypanosoma cruzi; conditions: 50 μM, 72 h p.i.
[6] = target: T3, recombinant CZP (cruzain) (Trypanosoma cruzi, UniProt P25779); assay: CZP inhibition, cleavage of fluorogenic substrate Z-FR-AMC (initial screening and IC50); format: biochemical, T. cruzi
T3 construct: gift of Allison Doak and Prof; Brian Shoichet (University of California San Francisco)
Procedure: The previously reported methods were followed to evaluate the in vitro activity against CZP [91, 92, 93, 94]. Allison Doak and Prof. Brian Shoichet (University of California San Francisco, San Francisco, CA, USA) generously provided recombinant CZP (cruzain). The enzyme activity was measured by monitoring the cleavage of the fluorogenic substrate Z-FR-AMC at 25 °C. Unless stated otherwise, assays were performed using 2.5 μ M of substrate ( KM = 0.5 ± 0.1 μ M) and 0.5 nM CZP in a 0.1 M sodium acetate buffer, pH 5.5, 0.01% Triton X-100 and 2 mM β -mercaptoethanol. DMSO and 1 μ M E-64 were employed as negative and positive controls, respectively, in all assays. Fluorescence was monitored at 340/440 nm (excitation/emission) over time in a Biotec 87 Synergy 2 fluorimeter at the Multiuser Laboratory of the Biochemistry and Immunology Department (UFMG, Belo Horizonte, Brazil). All assays were performed in triplicate in two independent experiments.
Initial screening. For the initial screening against CZP, compounds at 100 μ M were tested against CZP with and without a 10min pre-incubation with the enzyme. The fluorescence was monitored for 10 min at 5 s intervals. DMSO and E-64 were employed in all assays as negative and positive controls, respectively. Initial velocities of the negative control (DMSO) were compared to those in the presence of compounds to calculate the percentage of inhibition. The reported values correspond to the mean and standard error of the mean (SEM) of experiments performed in triplicate in two independent experiments.
IC50 determination. Compounds in at least eight distinct compound concentrations (400 μ M, 100 μ M, 25 μ M, 6.25 μ M, 1.5 μ M, 0.4 μ M, 0.1 μ M and 0.025 μ M) were incubated with CZP for 10 min, and once the substrate was added, the fluorescence was monitored for 10 min at 5 s intervals. IC50 curves were obtained from a non-linear fit of the inhibition values versus the logarithmic concentration of the compounds. The reported IC50 values are the mean and SEM of two independent measurements performed in triplicate.

CZP [7] = target: T1, CZP; assay: Mechanism of CZP inhibition (Michaelis-Menten, Lineweaver-Burk); format: biochemical, T. cruzi
Procedure: Mechanism of inhibition. […] The results were calculated by nonlinear (Michaelis–Menten) and linear regression (Lineweaver–Burk plots). The effect of the inhibitor concentration on the KMapp and its Ki was evaluated by the general linear F-test.

[8] = 100 μM, 10 min pre-incubation of the enzyme with compound, read-out: % CZP inh.
[9] = 10 min incubation with CZP, mean ± SEM of two independent experiments, read-out: IC50 (μM) against CZP
[10] = read-out: % CZP inhib. wo/inc., 100 μM, without prior incubation

T3 sequence (P25779 123-337): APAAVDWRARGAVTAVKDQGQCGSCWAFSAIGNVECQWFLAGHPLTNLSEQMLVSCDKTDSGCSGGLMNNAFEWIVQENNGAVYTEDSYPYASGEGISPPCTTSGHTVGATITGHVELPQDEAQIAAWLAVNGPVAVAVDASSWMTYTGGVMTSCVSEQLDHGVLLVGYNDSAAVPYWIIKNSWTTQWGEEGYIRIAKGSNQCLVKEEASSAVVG
T1 sequence (P25779 123-337): as above
T2 sequence (P07711 114-333): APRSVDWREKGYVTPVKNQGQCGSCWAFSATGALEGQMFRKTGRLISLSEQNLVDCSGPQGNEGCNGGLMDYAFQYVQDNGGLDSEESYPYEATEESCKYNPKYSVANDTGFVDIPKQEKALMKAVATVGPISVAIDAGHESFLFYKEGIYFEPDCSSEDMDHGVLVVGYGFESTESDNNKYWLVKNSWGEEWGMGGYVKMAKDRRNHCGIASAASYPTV

SMILES	IC50 (T. cruzi)	cytotoxicity, uninfected Vero cell viability in words (Vero cells)	anti-T. cruzi/cytotoxicity balance in words [1]	slope of progress curve relative to control (DMSO) (CZP [2])	mode of CZP inhibition from jump dilution (CZP [2])	selectivity for CZP over hCatL in words [3]	inhibition at 100 µM [3]	CZP activity inhibition percentage, Triton 0% + BSA (CZP [4])	CZP activity inhibition percentage, Triton 0% (CZP [4])	CZP activity inhibition percentage, Triton 0.01% (CZP [4])	CZP activity inhibition percentage, Triton 0.1% (CZP [4])	reduction of infection [5]	inhibition at 100 µM [6, 8]	IC50 [6, 9]	inhibition at 100 µM [6, 10]	further results
CN1CCN(C(=O)N[C@@H](Cc2ccccc2)C(=O)N[C@H](/C=C/S(=O)(=O)c2ccccc2)CCc2ccccc2)CC1 [K777]	~10 µM and 10 µM	–	–	–	–	–	–	–	–	–	–	–	–	–	–	–
CCCCC(C(=O)COc1c(F)c(F)cc(F)c1F)n1cc([C@@](C)(NCc2ccc3ncccc3c2)C(C)C)nn1 (stereo partly drawn) [Ts-370]	5.1 µM	–	–	–	–	–	–	–	–	–	–	–	–	–	–	–
NCCCCC(C=O)n1cc(C(NCc2ccc3c(c2)OCO3)C2CCCCC2)nn1 (stereo not drawn) [Ald-6]	–	low cytotoxicity	acceptable anti-T. cruzi/cytotoxicity balance	about 12%	covalent irreversible inhibition	selective CZP inhibitors	26 ± 5%	37± 3%	43± 5%	31± 3%	44± 4%	97%	81 ± 2%	3.3 ± 0.3 µM	18 ± 3%	reduction in T. cruzi infection ([1]; 1 μM): 27%; parasite survival ([1]; 10 μM, after 72 h of incubation): 7%; IC50 ([1]; Trypanosoma cruzi, TULAHUEN, Vero, read-out: IC50^Tc): 3.2 ± 0.4 µM; IC50^Tc/IC50^CZP ratio ([1]; translation ratio): 0.97 ± 0.16
COC(=O)C(CS)n1cc(C(NCc2ccc3c(c2)OCO3)C2CCCCC2)nn1 (stereo not drawn) [Es-14]	–	significantly reduced cell viability	–	–	–	selective CZP inhibitors	0%	–	–	–	–	–	≥ 47%	–	–	–
COC(=O)C(CCCNC(=N)N)n1cc(C(NCc2ccc3c(c2)OCO3)C2CCCCC2)nn1 (stereo not drawn) [Es-15]	–	–	acceptable anti-T. cruzi/cytotoxicity balance	–	–	selective CZP inhibitors	26 ± 16%	40± 3%	44± 5%	41± 1%	36± 7%	–	–	6.8 ± 0.3 µM	–	Ki (CZP [7]; calculated, general linear F-test p = 0.0127): 3 ± 1 µM; mechanism of CZP inhibition (CZP [7]; in words): mixed mechanism of inhibition; α value (CZP [7]; mixed-model fit of Michaelis-Menten data): 8.3; inhibition at 100 µM ([6]; 100 μM, without prior incubation, read-out: % CZP inhib. wo/inc.): 81 ± 2%
O=CC(CO)n1cc(C(NCc2ccc3c(c2)OCO3)C2CCCCC2)nn1 (stereo not drawn) [Ald-10]	–	low cytotoxicity	acceptable anti-T. cruzi/cytotoxicity balance	~24%	covalent irreversible inhibition	selective CZP inhibitors	7 ± 2%	43± 2%	47± 6%	43± 2%	46± 8%	97%	87 ± 1%	–	21 ± 1%	reduction of T. cruzi viability ([1]; 10 μM): 38%; IC50 [6]: 3.4 ± 0.5 µM
